Data taken from patent US9549932B2, “2-(morpholin-4-yl)-1,7-naphthyridines” (BAYER PHARMA AKTIENGESELLSCHAFT, priority 2014, dated 2017).
Read-outs that look alike come from different tables or passages of the source.

Molecular target: full-length human ATR protein (Homo sapiens (Human), UniProt Q13535)
Test: Binding assay ATR (TR-FRET tracer displacement)
Settings: TR-FRET
Procedure, shortened: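 Full-length human GST-ATR co-purified with ATRIP, pre-complexed 30 min at 22 °C with anti-GST-Tb antibody, then pre-bound with compound 10 min. Tracer A or B added (2 µl of 100 nM solution), 30 min at 22 °C.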

[1] = tracer A, read-out: ATR binding (tracer A) IC50
[2] = tracer B, read-out: ATR binding (tracer B) IC50

Chain of full-length human ATR protein (Q13535 other isoform, or with tags, fused parts or gaps): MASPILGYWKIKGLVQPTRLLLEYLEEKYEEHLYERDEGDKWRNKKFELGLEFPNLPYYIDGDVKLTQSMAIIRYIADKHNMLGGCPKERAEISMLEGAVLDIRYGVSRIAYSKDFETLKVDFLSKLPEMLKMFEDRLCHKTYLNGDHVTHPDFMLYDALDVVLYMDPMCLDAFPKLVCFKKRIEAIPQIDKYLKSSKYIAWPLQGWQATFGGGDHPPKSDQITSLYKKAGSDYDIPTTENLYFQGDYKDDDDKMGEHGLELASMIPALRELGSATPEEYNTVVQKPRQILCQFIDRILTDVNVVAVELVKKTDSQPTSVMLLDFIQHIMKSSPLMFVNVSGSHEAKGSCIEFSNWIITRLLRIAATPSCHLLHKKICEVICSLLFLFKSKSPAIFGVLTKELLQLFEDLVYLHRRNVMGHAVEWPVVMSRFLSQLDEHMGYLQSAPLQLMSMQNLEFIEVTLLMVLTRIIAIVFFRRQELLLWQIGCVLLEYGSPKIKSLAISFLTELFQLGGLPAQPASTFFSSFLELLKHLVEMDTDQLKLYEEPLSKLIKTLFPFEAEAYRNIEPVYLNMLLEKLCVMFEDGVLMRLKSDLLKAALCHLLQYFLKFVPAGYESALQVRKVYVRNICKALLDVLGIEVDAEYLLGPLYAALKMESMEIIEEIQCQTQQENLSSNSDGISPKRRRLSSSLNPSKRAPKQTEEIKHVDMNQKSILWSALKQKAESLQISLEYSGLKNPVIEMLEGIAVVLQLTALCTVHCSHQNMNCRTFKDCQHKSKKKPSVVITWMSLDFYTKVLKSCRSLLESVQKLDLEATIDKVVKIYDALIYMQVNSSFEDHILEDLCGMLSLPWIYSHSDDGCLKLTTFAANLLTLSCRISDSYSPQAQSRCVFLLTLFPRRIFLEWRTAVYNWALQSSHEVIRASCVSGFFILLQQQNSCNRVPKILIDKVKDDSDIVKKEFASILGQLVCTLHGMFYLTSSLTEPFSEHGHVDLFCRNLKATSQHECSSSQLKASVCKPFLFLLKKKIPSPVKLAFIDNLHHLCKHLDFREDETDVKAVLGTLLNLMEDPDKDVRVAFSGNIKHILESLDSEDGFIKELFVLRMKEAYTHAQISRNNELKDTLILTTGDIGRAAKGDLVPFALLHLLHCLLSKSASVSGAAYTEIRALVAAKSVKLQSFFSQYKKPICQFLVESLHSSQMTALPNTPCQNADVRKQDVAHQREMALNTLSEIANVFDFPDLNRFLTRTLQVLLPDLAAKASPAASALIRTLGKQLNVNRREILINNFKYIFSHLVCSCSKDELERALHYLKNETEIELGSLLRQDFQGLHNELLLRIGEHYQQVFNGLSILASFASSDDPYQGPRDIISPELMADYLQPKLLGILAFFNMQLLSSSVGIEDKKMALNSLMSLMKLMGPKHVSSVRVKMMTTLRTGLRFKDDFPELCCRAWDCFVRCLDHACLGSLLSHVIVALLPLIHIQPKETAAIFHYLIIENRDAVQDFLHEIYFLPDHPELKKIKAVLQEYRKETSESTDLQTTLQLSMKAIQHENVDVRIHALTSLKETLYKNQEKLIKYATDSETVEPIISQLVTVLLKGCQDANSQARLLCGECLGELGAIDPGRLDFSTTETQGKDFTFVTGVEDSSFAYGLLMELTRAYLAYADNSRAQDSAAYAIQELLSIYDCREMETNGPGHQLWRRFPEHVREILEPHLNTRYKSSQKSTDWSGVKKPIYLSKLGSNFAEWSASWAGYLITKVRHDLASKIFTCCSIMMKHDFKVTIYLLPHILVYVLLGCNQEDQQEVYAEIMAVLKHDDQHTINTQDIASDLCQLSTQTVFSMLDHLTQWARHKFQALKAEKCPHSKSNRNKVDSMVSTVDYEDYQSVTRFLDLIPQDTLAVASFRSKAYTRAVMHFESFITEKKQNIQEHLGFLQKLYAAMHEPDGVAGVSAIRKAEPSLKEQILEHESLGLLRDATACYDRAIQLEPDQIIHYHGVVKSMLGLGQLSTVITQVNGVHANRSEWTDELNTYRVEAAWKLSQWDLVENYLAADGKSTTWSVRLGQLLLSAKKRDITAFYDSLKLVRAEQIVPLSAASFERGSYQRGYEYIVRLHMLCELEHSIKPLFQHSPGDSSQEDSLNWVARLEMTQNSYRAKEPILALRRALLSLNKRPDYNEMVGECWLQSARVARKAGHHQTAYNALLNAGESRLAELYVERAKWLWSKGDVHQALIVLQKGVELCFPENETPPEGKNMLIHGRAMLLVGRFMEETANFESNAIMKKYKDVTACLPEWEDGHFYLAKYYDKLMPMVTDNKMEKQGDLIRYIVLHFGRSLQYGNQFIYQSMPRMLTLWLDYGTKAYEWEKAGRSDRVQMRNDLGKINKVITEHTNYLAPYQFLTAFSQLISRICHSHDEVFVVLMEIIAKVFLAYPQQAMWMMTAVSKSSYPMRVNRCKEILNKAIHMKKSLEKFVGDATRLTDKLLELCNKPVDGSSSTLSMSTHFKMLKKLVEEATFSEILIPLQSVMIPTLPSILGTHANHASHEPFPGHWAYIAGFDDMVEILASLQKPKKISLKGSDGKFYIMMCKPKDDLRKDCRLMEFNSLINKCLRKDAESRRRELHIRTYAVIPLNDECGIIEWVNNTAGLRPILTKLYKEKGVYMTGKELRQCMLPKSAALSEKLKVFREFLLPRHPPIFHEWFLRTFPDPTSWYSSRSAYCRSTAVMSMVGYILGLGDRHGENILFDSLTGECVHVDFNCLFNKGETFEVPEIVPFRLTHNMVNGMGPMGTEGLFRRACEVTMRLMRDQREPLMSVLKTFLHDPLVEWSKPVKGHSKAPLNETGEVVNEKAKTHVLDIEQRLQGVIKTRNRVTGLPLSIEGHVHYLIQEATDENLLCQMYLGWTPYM
Chain of full-length human ATR protein (Q8WXE1 other isoform, or with tags, fused parts or gaps partner): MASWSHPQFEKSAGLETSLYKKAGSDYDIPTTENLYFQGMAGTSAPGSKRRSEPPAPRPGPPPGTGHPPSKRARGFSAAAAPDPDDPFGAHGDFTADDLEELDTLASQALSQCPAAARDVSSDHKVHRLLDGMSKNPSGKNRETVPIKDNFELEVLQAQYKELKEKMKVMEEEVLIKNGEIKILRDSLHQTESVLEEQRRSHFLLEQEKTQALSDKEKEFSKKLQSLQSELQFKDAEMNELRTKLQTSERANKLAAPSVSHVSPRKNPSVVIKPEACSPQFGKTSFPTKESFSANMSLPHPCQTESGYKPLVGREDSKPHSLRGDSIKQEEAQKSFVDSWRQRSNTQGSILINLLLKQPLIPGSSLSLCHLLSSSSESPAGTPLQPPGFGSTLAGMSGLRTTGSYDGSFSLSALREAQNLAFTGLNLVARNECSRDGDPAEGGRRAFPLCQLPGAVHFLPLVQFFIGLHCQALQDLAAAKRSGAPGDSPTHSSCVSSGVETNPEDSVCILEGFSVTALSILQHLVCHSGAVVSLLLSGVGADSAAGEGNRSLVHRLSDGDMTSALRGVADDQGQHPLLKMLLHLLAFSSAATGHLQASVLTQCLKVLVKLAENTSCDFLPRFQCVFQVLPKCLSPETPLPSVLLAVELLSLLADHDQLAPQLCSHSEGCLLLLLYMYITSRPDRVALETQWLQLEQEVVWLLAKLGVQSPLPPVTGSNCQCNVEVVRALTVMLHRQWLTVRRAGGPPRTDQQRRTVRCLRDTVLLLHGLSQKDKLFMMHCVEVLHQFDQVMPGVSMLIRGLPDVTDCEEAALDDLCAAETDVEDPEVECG

| Compound | IC50 [1] [nM] | IC50 [2] [nM] |
| --- | --- | --- |
| C1=C(c2cc(N3CCOCC3)nc3c(-c4ccn[nH]4)nccc23)CCNC1 [Example 17, 2-(morpholin-4-yl)-8-(1H-pyrazol-5-yl)-4-(1,2,3,6-tetrahydropyridin-4-yl)-1,7-naphthyridine] | 185 | 117 |
| C[C@@H]1COCCN1c1cc(-c2cnn(C3CC3)c2)c2ccnc(-c3ccn[nH]3)c2n1 [Example 254, 4-(1-cyclopropyl-1H-pyrazol-4-yl)-2-[(3R)-3-methylmorpholin-4-yl]-8-(1H-pyrazol-5-yl)-1,7-naphthyridine] | 44.8 |  |
| CCS(=O)(CC)=Nc1cc(N2CCOC[C@H]2C)nc2c(-c3ccn[nH]3)nccc12 [Example 126, 4-{[diethyl(oxido)-λ^6-sulfanylidene]amino}-2-[(3R)-3-methylmorpholin-4-yl]-8-(1H-pyrazol-5-yl)-1,7-naphthyridine] | 21.5 |  |
| c1ccc(-c2ccc(-c3cc(N4CCOCC4)nc4c(-c5ccn[nH]5)nccc34)cc2)cc1 [Example 331, 4-(biphenyl-4-yl)-2-(morpholin-4-yl)-8-(1H-pyrazol-5-yl)-1,7-naphthyridine] | 376 |  |
| O=S(=O)(c1ccccc1)c1cc(N2CCOCC2)nc2c(-c3ccn[nH]3)nccc12 [Example 198, 2-(morpholin-4-yl)-4-(phenylsulfonyl)-8-(1H-pyrazol-5-yl)-1,7-naphthyridine] | 293 |  |
| Cc1cc(S(C)(=O)=O)ncc1-c1cc(N2CCOC[C@H]2C)nc2c(-c3ccn[nH]3)nccc12 [Example 79, 4-[4-methyl-6-(methylsulfonyl)pyridin-3-yl]-2-[(3R)-3-methylmorpholin-4-yl]-8-(1H-pyrazol-5-yl)-1,7-naphthyridine] | 12 |  |
| C[C@@H]1COCCN1c1cc(N=S2(=O)CCOCC2)c2ccnc(-c3ccn[nH]3)c2n1 [Example 64, N-{2-[(3R)-3-methylmorpholin-4-yl]-8-(1H-pyrazol-5-yl)-1,7-naphthyridin-4-yl}-1,4λ^4-oxathian-4-imine 4-oxide] | 27.4 |  |
| C1=CCN(c2cc(N3CCOCC3)nc3c(-c4ccn[nH]4)nccc23)C1 [Example 417, 4-(2,5-dihydro-1H-pyrrol-1-yl)-2-(morpholin-4-yl)-8-(1H-pyrazol-5-yl)-1,7-naphthyridine] | 1070 |  |
| CC1CCN(c2cc(N3CCOCC3)nc3c(-c4ccn[nH]4)nccc23)CC1 [Example 415, 4-(4-methylpiperidin-1-yl)-2-(morpholin-4-yl)-8-(1H-pyrazol-5-yl)-1,7-naphthyridine] | 32.7 |  |
| Cc1sccc1-c1cc(N2CCOC[C@H]2C)nc2c(-c3ccn[nH]3)nccc12 [Example 103, 2-[(3R)-3-methylmorpholin-4-yl]-4-(2-methyl-3-thienyl)-8-(1H-pyrazol-5-yl)-1,7-naphthyridine] | 10.1 |  |
| C[C@@H]1COCCN1c1cc(-c2ccc(F)cc2F)c2ccnc(-c3ccn[nH]3)c2n1 [Example 123, 4-(2,4-difluorophenyl)-2-[(3R)-3-methylmorpholin-4-yl]-8-(1H-pyrazol-5-yl)-1,7-naphthyridine] | 21.3 |  |
| CCOC(=O)N=S(C)(=O)c1ccc(-c2cc(N3CCOCC3)nc3c(-c4ccn[nH]4)nccc23)cc1 (stereo not drawn) [Example 1] | 36.8 | 23.9 |
| CC(C)Oc1cc(N2[C@H](C)COC[C@@H]2C)nc2c(-c3ccn[nH]3)nccc12 [Example 58, 2-[(3R,5S)-3,5-dimethylmorpholin-4-yl]-4-isopropoxy-8-(1H-pyrazol-5-yl)-1,7-naphthyridine] | 413 | 615 |
| C[C@@H]1COCCN1c1cc(-c2ccnn2C2CC2)c2ccnc(-c3ccn[nH]3)c2n1 [Example 80, 4-(1-cyclopropyl-1H-pyrazol-5-yl)-2-[(3R)-3-methylmorpholin-4-yl]-8-(1H-pyrazol-5-yl)-1,7-naphthyridine] | 12.1 |  |
| C[C@@H]1COCCN1c1cc(-c2sccc2Cl)c2ccnc(-c3ccn[nH]3)c2n1 [Example 102, 4-(3-chloro-2-thienyl)-2-[(3R)-3-methylmorpholin-4-yl]-8-(1H-pyrazol-5-yl)-1,7-naphthyridine] | 12.3 |  |
| CC(C)Oc1cc(N2CCOC[C@@H]2C)nc2c(-c3cc[nH]n3)nccc12 [Example 67, 4-isopropoxy-2-((S)-3-methylmorpholin-4-yl)-8-(1H-pyrazol-3-yl)-[1,7]naphthyridine] | 1000 | 1270 |
| O=S(=O)(c1ccccc1)n1c(-c2cc(N3CCOCC3)nc3c(-c4ccn[nH]4)nccc23)cc2ccccc21 [Example 355, 2-(morpholin-4-yl)-4-[1-(phenylsulfonyl)-1H-indol-2-yl]-8-(1H-pyrazol-5-yl)-1,7-naphthyridine] | 484 |  |
| C[C@@H]1COCCN1c1cc(-c2ccc(S(C)(=O)=O)cc2F)c2ccnc(-c3ccn[nH]3)c2n1 [Example 74, 4-[2-fluoro-4-(methylsulfonyl)phenyl]-2-[(3R)-3-methylmorpholin-4-yl]-8-(1H-pyrazol-5-yl)-1,7-naphthyridine] | 7.1 |  |
| c1ccc(-c2ccccc2-c2cc(N3CCOCC3)nc3c(-c4ccn[nH]4)nccc23)cc1 [Example 345, 4-(biphenyl-2-yl)-2-(morpholin-4-yl)-8-(1H-pyrazol-5-yl)-1,7-naphthyridine] | 55.6 |  |

| Compound | IC50 [1] [nM] | IC50 [2] [nM] |
| --- | --- | --- |
| Clc1ccccc1-c1cc(N2CCOCC2)nc2c(-c3ccn[nH]3)nccc12 [Example 333, 4-(2-chlorophenyl)-2-(morpholin-4-yl)-8-(1H-pyrazol-5-yl)-1,7-naphthyridine] | 25.3 |  |
| Nc1cccc(-c2cc(N3CCOCC3)nc3c(-c4ccn[nH]4)nccc23)c1 [Example 335, 3-[2-(morpholin-4-yl)-8-(1H-pyrazol-5-yl)-1,7-naphthyridin-4-yl]aniline] | 66.2 |  |
| COc1ccsc1-c1cc(N2CCOC[C@H]2C)nc2c(-c3ccn[nH]3)nccc12 [Example 235, 4-(3-methoxythiophen-2-yl)-2-[(3R)-3-methylmorpholin-4-yl]-8-(1H-pyrazol-5-yl)-1,7-naphthyridine] | 21.3 |  |
| CC(C)S(=N)(=O)c1ccc(-c2cc(N3CCOCC3)nc3c(-c4ccn[nH]4)nccc23)cc1 (stereo not drawn) [Example 25, 2-(morpholin-4-yl)-4-{4-[S-(propan-2-yl)sulfonimidoyl]phenyl}-8-(1H-pyrazol-5-yl)-1,7-naphthyridine] | 110 | 75.1 |
| C[C@@H]1COCCN1c1cc(-c2cnn(CCO)c2)c2ccnc(-c3ccn[nH]3)c2n1 [Example 260, 2-(4-{2-[(3R)-3-methylmorpholin-4-yl]-8-(1H-pyrazol-5-yl)-1,7-naphthyridin-4-yl}-1H-pyrazol-1-yl)ethanol] | 28.1 |  |
| c1ccc2c(c1)CCCN2c1cc(N2CCOCC2)nc2c(-c3ccn[nH]3)nccc12 [Example 418, 4-(3,4-dihydroquinolin-1(2H)-yl)-2-(morpholin-4-yl)-8-(1H-pyrazol-5-yl)-1,7-naphthyridine] | 94.1 |  |
| COc1cccc(-c2cc(N3CCOCC3)nc3c(-c4ccn[nH]4)nccc23)c1OC [Example 319, 4-(2,3-dimethoxyphenyl)-2-(morpholin-4-yl)-8-(1H-pyrazol-5-yl)-1,7-naphthyridine] | 325 |  |
| C[C@@H]1COCCN1c1cc(-c2cnn(C(F)F)c2)c2ccnc(-c3ccn[nH]3)c2n1 [Example 256, 4-[1-(difluoromethyl)-1H-pyrazol-4-yl]-2-[(3R)-3-methylmorpholin-4-yl]-8-(1H-pyrazol-5-yl)-1,7-naphthyridine] | 56.2 |  |
| COCc1noc(C)c1-c1cc(N2CCOC[C@H]2C)nc2c(-c3ccn[nH]3)nccc12 [Example 135, 4-[3-(methoxymethyl)-5-methyl-1,2-oxazol-4-yl]-2-[(3R)-3-methylmorpholin-4-yl]-8-(1H-pyrazol-5-yl)-1,7-naphthyridine] | 32.9 |  |
| C[C@@H]1COCCN1c1cc(OCCCN)c2ccnc(-c3ccn[nH]3)c2n1 [Example 193, 3-({2-[(3R)-3-methylmorpholin-4-yl]-8-(1H-pyrazol-5-yl)-1,7-naphthyridin-4-yl}oxy)propan-1-amine] | 245 |  |
| CC(C)Oc1ncccc1-c1cc(N2CCOCC2)nc2c(-c3ccn[nH]3)nccc12 [Example 405, 2-(morpholin-4-yl)-4-[2-(propan-2-yloxy)pyridin-3-yl]-8-(1H-pyrazol-5-yl)-1,7-naphthyridine] | 419 |  |
| c1c[nH]c(-c2cc(N3CCOCC3)nc3c(-c4ccn[nH]4)nccc23)c1 [Example 211, 2-(morpholin-4-yl)-8-(1H-pyrazol-5-yl)-4-(1H-pyrrol-2-yl)-1,7-naphthyridine] | 547 |  |
| c1cc(-c2nccc3c(-c4ccnc5[nH]ccc45)cc(N4CCOCC4)nc23)[nH]n1 [Example 401, 2-(morpholin-4-yl)-8-(1H-pyrazol-5-yl)-4-(1H-pyrrolo[2,3-b]pyridin-4-yl)-1,7-naphthyridine] | 87.5 |  |
| CN(C)C(=O)c1cccc(-c2cc(N3CCOCC3)nc3c(-c4ccn[nH]4)nccc23)c1 [Example 288, N,N-dimethyl-3-[2-(morpholin-4-yl)-8-(1H-pyrazol-5-yl)-1,7-naphthyridin-4-yl]benzamide] | 345 |  |
| CC(C)Oc1cc(N2CCOCC2)nc2c(-c3ccc[nH]3)nccc12 [Example 41, 2-(morpholin-4-yl)-4-(propan-2-yloxy)-8-(1H-pyrrol-2-yl)-1,7-naphthyridine] | 339 | 230 |
| c1cc(-c2nccc3c(OCC4CCOCC4)cc(N4CCOCC4)nc23)[nH]n1 [Example 287, 2-(morpholin-4-yl)-8-(1H-pyrazol-5-yl)-4-(tetrahydro-2H-pyran-4-ylmethoxy)-1,7-naphthyridine] | 675 | 461 |
| COC(=O)c1ccc(-c2cc(N3CCOC[C@H]3C)nc3c(-c4ccn[nH]4)nccc23)[nH]1 [Example 120, Methyl 5-{2-[(3R)-3-methylmorpholin-4-yl]-8-(1H-pyrazol-5-yl)-1,7-naphthyridin-4-yl}-1H-pyrrole-2-carboxylate] | 13.1 |  |
| CCOC(=O)N=S(C)(=O)c1cccc(-c2cc(N3CCOCC3)nc3c(-c4ccn[nH]4)nccc23)c1 (stereo not drawn) [Example 13] | 141 | 104 |
